Assay results from US20230041271A1, “Mitochondria-Targeted Polypeptide, Preparation Method thereof, and Use thereof” (Shenzhen Campus of Sun Yat-sen University, priority 2021, published 2023).
Square brackets hold non-standard residues; d marks the D form. Peptide text beside a SMILES is read from it. * marks the point of attachment. X2 = COc1cccc2c1C(=O)c1c(O)c3c(c(O)c1C2=O)C[C@@](O)(C(=O)CO)C[C@@H]3O[C@H]1C[C@H](NC(=O)OCCSSCCOC(=O)*)[C@H](O)[C@H](C)O1; 2Nal = N[C@@H](Cc1ccc2ccccc2c1)C(=O)O; d2Nal = N[C@H](Cc1ccc2ccccc2c1)C(=O)O; X1 = O=C1NC2CS[C@@H](CCCCC(=O)*)C2N1

Legend:
[1] = tested on: Hela cells; experiment: Drug release test of prodrug 17 in cells (fluorescence imaging); type: cell-based; conditions: for localization in the cells: HeLa cells
Description: Hela cells were cultured in an 8-well imaging dish and then treated with prodrug 17 (1 μM) for a certain time (1 h, 2 h, 3 h and 5 h). After the culture medium was removed, the cells were washed with PBS, a fresh culture medium was used for replacement, and the treated cells were then photographed by a fluorescence microscope. In addition, the cells were directly co-incubated with compound 17 (1 μM) for 1 h and then incubated with exogenous GSH (2 mM) for another 1 h (totally 2 h of incubation with compound 17); the cells were pretreated with the GSH inhibitor BSO (5 mM) for 24 h and then incubated with compound 17 (1 μM) for 3 h; and the cells were pre-incubated with a tumor-targeted biotin ligand at various concentrations (1 mM or 2 mM) for 1 h and then co-incubated with compound 17 for 3 h. After the culture medium was removed, the cells were washed with PBS, a fresh culture medium was used for replacement, and a fluorescence microscope was then used to take an image, which was used as the control.

[2] = tested on: mitochondria of HeLa cells; experiment: Mitochondrial co-localization confocal imaging with MitoTracker Deep Red; type: cell-based; conditions: for co-localization coefficient with the commercial mitochondrial dye (MitoTracker Deep Red): HeLa cells, confocal imaging, 50 nM MitoTracker Deep Red
Description: The synthesized mitochondria-targeted fluorescent probes were analyzed by confocal imaging to detect the effect of the arginine number on the mitochondrial localization thereof.
Experimental method: Solid powders of mitochondria-targeted fluorescent probes 8-12 synthesized in Example 3 were dissolved in DMSO to prepare 2 mM test mother solutions, and HeLa cells were cultured in a culture medium (DMEM: FBS: penicillin-streptomycin dual antibody=9:1:0.1). The cells were inoculated in an 8-well imaging dish and cultured in a cell incubator containing 5% CO2 at 37° C. until the cell density reached 60%. After the culture medium was removed, the cells were incubated with the target compound for a specified time. The culture medium was then removed, and wash with PBS was conducted three times. Thereafter, 50 nM commercial mitochondrial probe MitoTracker Deep Red (50 nM) was further added to the culture dish for 15 minutes of continuous incubation. After the culture medium was removed, wash with PBS was conducted three times. Imaging on confocal microscope was then carried out. Blue channel tracker 1 was set, with the excitation wavelength being 405 nm and the emission band being 420-490 nm, and this channel was used to receive fluorescence emitted by the mitochondria-targeted peptide. Red channel tracker 2 was set, with the excitation wavelength being 640 nm and the emission band being 655-755 nm, and this channel was used to receive fluorescence emitted by MitoTracker Deep Red, a commercial mitochondrial dye. In addition, in a cell imaging experiment, green channel tracker 3 was set, with the excitation wavelength being 560 nm and the emission band being 580-620 nm, and this channel was used to receive fluorescence emitted by compound 13. Green channel tracker 4 was set, with the excitation wavelength being 488 nm and the emission band being 500-600 nm, and this channel was used to receive fluorescence emitted by compound 14.

[3] = Drug release and stability test of prodrug 17 in PBS solution with or without GSH (fluorescence, HPLC, ESI-MS); type: physicochemical
Description: Prodrug 17 (5 mM stock solution in DMSO) was diluted with PBS to form a solution at an indicated concentration and then incubated at 37° C. with a glutathione (GSH) solution at a specified concentration (0-12 mM GSH for concentration-dependent study and 10 mM GSH for time-dependent study), and the fluorescence of the treated sample was monitored periodically at specific time points. The change in the fluorescence intensity of the sample reflected the drug release behavior of prodrug 17 under GSH activation. In addition, a chromatogram was detected by high performance liquid chromatography after co-incubation of prodrug 17 (20 μM) with GSH (10 mM) in a PBS solution at 37° C. for 6 h, and a mass spectrum of the reaction solution was detected by ESI-MS.

[4] = tested on: HeLa tumor cells; experiment: Cytotoxicity test (MTT) on tumor cells; type: cell-based; conditions: various concentrations, 48 h
Description: (§1) Cells were inoculated in a 96-well plate and cultured overnight in a cell incubator containing 5% CO2 at 37° C. The cells were treated with prodrug 17 at various concentrations and cultured in a cell incubator containing 5% CO2 at 37° C. for 48 h. A commercial MTT assay kit was then used to measure the cell viability. The experiment was repeated three times, and the data were analyzed by GraphPad Prism 6.0 software.

[5] = tested on: normal CHO cells; experiment: Cytotoxicity test (MTT) on normal cells; type: cell-based; conditions: various concentrations, 48 h
Description: as §1

[6] = tested on: Hela cells; experiment: Determination of mitochondrial membrane potential MMP (JC-10 dye); type: cell-based; conditions: 0-10 μM, 24 hours
Description: Cells were inoculated in a 384-well plate with a black transparent bottom and then cultured overnight in a cell incubator containing 5% CO2 at 37° C., and the cells were treated with prodrug 17 at a specified concentration for 24 hours. An MMP kit (JC-10 dye, MAK-160) was then used for treatment and measurement according to the test method as provided, wherein apoptotic/damaged cells were monitored using λex=490 nm and λem=525 nm, and normal cells were monitored using λex=540 nm and λem=590 nm.

[7] = tested on: Hela cells; experiment: Apoptosis detection (Annexin V-PE, flow cytometry); type: cell-based; conditions: various concentrations, 24 h
Description: Cells were inoculated in a 35 mm culture dish. After culture overnight at 37° C., the cells were treated with prodrug 17 at a specified concentration for 24 h. The cells were then collected, rinsed with PBS, resuspended in 500 μL of 1×buffer, and quantitatively measured by a flow cytometer according to a method given by the apoptosis kit Annexin V-PE.

COc1cccc2c1C(=O)c1c(O)c3c(c(O)c1C2=O)C[C@@](O)(C(=O)CO)C[C@@H]3O[C@H]1C[C@H](N)[C@H](O)[C@H](C)O1 [Dox, doxorubicin, reference compound]
localization in the cells ([1]; 1 μM, fluorescence imaging): mainly located in the nucleus

COc1cccc2c1C(=O)c1c(O)c3c(c(O)c1C2=O)C[C@@](O)(C(=O)CO)C[C@@H]3O[C@H]1C[C@H](NC(=O)OCCSSCCOC(=O)NCCCC[C@H](NC(=O)CNC(=O)CNC(=O)[C@@H](Cc2ccc3ccccc3c2)NC(=O)[C@H](Cc2ccc3ccccc3c2)NC(=O)[C@H](CCCNC(=N)N)NC(=O)[C@H](CCCNC(=N)N)NC(=O)[C@H](CCCNC(=N)N)NC(=O)CCCC[C@@H]2SCC3NC(=O)NC32)C(N)=O)[C@H](O)[C@H](C)O1 (some centres unmarked) [prodrug 17] (X1-RRR[2Nal][d2Nal]GGK(X2)-NH2)
mitochondrial targeting (co-localization imaging) ([2]; 1 μM in HeLa cells): excellent mitochondrial targeting properties
time at which fluorescence (drug release) reached the maximum value ([3]; 37° C., 10 mM GSH, PBS): about 8 hours
stability in PBS solution ([3]; PBS solution at 37° C. for 7 days, HPLC): no obvious compound degradation
GSH-responsive release detected by HPLC and ESI-MS ([3]; prodrug 20 μM, GSH 10 mM, PBS, 37° C., 6 h): released Dox and mitochondria-targeted peptide 16 could be clearly detected
uptake by and release in HeLa cells ([1]; 1 μM, 1-5 h, fluorescence imaging): slowly taken up
cell fluorescence after pre-incubation with the GSH inhibitor BSO ([1]; BSO 5 mM 24 h, then 1 μM for 3 h): almost no fluorescence
localization in the cells ([1]; 1 μM, fluorescence imaging): mainly located in mitochondria
anti-tumor activity (cell viability of HeLa cells) [4]: strong anti-tumor activity
toxicity to normal cells (CHO cells) [5]: almost no toxicity
mitochondrial membrane potential change [6]: remarkable reduction in mitochondrial membrane potential
induction of apoptosis [7]: induce cell death through cell apoptosis

Ac-Arg-Arg-Arg-Arg-Arg-L-Nal-D-Nal-Gly-Gly-Lys [MTPS]
co-localization coefficient with the commercial mitochondrial dye (MitoTracker Deep Red) [2]: 0.54

Ac-Arg-Arg-Arg-Arg-L-Nal-D-Nal-Gly-Gly-Lys [MTP4]
co-localization coefficient with the commercial mitochondrial dye (MitoTracker Deep Red) [2]: 0.68

Ac-Arg-Arg-Arg-L-Nal-D-Nal-Gly-Gly-Lys [MTP3]
co-localization coefficient with the commercial mitochondrial dye (MitoTracker Deep Red) [2]: 0.84
co-localization coefficient with the commercial fluorescent probe after long co-incubation ([2]; after co-incubation with cells for up to 36 h): 0.70

Ac-Arg-Arg-L-Nal-D-Nal-Gly-Gly-Lys [MTP2]
co-localization coefficient with the commercial mitochondrial dye (MitoTracker Deep Red) [2]: 0.65
